Results reported in US12492208B2, “Crystal of pyrimidine compound” (TAIHO PHARMACEUTICAL CO., LTD., priority 2020, dated 2025).

How the values were obtained:
[1] = target: T1, recombinant human HER2 exon 20 insertion mutant (A775_G776insYVMA) protein (Homo sapiens, UniProt P04626, INS775YVMA); assay: Inhibitory action (in vitro) against HER2 exon 20 insertion mutant phosphorylation activity; assay type: biochemical; conditions: pre-incubated 30 minutes, ATP 200 μM, 220 minutes; read-out: HER2ex20insYVMA inhibitory activity IC50 value
T1 construct: purchased SignalChem
T1 sequence (P04626 with tags, fused parts or gaps INS775YVMA limits assumed): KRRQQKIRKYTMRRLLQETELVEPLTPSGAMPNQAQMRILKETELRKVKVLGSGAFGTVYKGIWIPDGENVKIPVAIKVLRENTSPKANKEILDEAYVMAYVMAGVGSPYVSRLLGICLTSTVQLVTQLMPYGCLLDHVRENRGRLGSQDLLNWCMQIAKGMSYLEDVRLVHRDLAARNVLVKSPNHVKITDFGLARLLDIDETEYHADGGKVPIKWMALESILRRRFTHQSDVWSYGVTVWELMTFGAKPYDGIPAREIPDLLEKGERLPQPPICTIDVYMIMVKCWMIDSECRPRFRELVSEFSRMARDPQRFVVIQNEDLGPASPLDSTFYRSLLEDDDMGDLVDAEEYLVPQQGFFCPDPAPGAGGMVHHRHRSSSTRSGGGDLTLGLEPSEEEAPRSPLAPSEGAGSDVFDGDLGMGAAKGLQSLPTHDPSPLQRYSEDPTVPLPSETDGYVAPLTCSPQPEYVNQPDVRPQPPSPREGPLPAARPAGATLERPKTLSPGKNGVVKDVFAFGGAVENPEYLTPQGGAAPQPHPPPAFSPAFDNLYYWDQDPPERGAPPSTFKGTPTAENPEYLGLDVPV
Description: In order to determine conditions for a method of measuring the in vitro inhibitory activity of a compound against HER2 exon 20 insertion mutant phosphorylation activity, as in the case of HER2, ProfilerPro Peptide 22 was used as a substrate. A purified recombinant human HER2 exon 20 insertion mutant (A775_G776insYVMA) protein was purchased from SignalChem. Upon the measurement of the inhibitory activity of the compound, first, the compound (I) obtained according to the method in Synthesis Example 1 was diluted stepwise with dimethyl sulfoxide (DMSO). Subsequently, the HER2 exon 20 insertion mutant protein and the compound (I) in DMSO solution (final concentration of DMSO: 5%) were added into a buffer for the kinase reaction (13.5 mM Tris (pH 7.5), 2 mM dithiothreitol, and 0.009% Tween 20), and the obtained mixture was then pre-incubated at 25° C. for 30 minutes. […] Finally, using LabChip (registered trademark) EZ Reader II (PerkinElmer), an unphosphorylated substrate peptide(S) and a phosphorylated peptide (P) were separated and detected according to microchannel capillary electrophoresis. […]

Ba/F3-HER2insYVMA cells = assay: Growth inhibitory activity against HER2 exon 20 insertion mutant expressing cell line; assay type: cell-based; conditions: Mus musculus, 72 h, 3 days, CellTiter-Glo 2.0, read-out: HER2ex20insYVMA cell growth inhibitory activity IC50 value
Method: Growth inhibitory activity against the HER2 exon 20 insertion mutant was measured using Ba/F3 cells that were a mouse B lymphocyte precursor cell line, into which a human HER2 exon 20 insertion mutant gene had been introduced. The Ba/F3 cells were maintained in an RPMI-1640 medium (Thermo Fisher Scientific) supplemented with 10% fetal bovine serum (FBS), 100 U/mL penicillin, 100 μg/mL streptomycin (Thermo Fisher Scientific) and 1 ng/mL mouse interleukin-3 (mIL-3) (CST).
Upon evaluation of cell growth inhibitory activity, the Ba/F3-HER2insYVMA cells were suspended in an RPMI-1640 medium supplemented with 10% FBS, 100 U/mL penicillin, and 100 μg/mL streptomycin. The cell suspension was seeded in each well of a 96-well flat-bottom microplate, and was then cultured in a 5% carbon dioxide gas-containing culture vessel at 37° C. for 1 day. The compound (I) obtained according to the method in Synthesis Example 1 was dissolved in DMSO, and was then diluted with DMSO or the medium used in the suspension of the cells. The obtained solution was then added to each well of the culture plate, so that the final concentration of DMSO became 0.2%. […] After completion of the culture for 3 days in the presence of the compound, the cells were counted using CellTiter-Glo 2.0 (manufactured by Promega), and the growth inhibition percentage was then calculated according to the following equation. […]

[2] = test system: Luciferase gene-introduced HER2 expressing cell line (NCI-N87-Luc); assay: Antitumor effect confirmation test (in vivo) on direct brain transplantation models; parameters: species or system nude mouse (BALB/cAJcl-nu/nu); conditions: 25 mg/kg/day oral, 21 days
Method: In order to confirm the antitumor effects of a test compound on direct brain transplantation models, NCI-N87-Luc, which was obtained by introducing a luciferase gene into NCI-N87 that was a human stomach cancer tumor cell line purchased from American Type Culture Collection, was used. The NCI-N87-Luc was added into a 10% fetal bovine serum (FBS)-containing RPMI-1640 medium (supplemented with 4.5 g/L glucose, 10 mM HEPES, and 1 mM sodium pyruvate) (Wako Pure Chemical Industries, Ltd.), and this cell line was then cultured in a 5% CO2 incubator at 37° C.
The NCI-N87-Luc cells were re-suspended in PBS in a concentration of 6.25×10^7 cells/mL. […]
As a reference of the amount of brain tumor, approximately 3 weeks after the transplantation, Total Flux (Photon/sec) was measured in all of the survival cases, using IVIS (PerkinElmer, Inc., model: Lumina II). […]
The value obtained by logarithmic transformation (Log 10) of the total flux on Day 22 in each group was analyzed by a significance test. […] A body weight change percentage (Body weight change; BWCn) from the body weight on the n^th day (BWn) was calculated according to the following equation: BWCn (%)=[(body weight on n^th day)−(body weight on grouping day)]/[(body weight on grouping day)]×100.

IC50 [1]: < 0.3 nM
IC50 (Ba/F3-HER2insYVMA cells): 29 nM
SMILES: C=CC(=O)N1C[C@H](n2c(C#CC3CC3)c(C(=O)N[C@H](C)c3ccccc3)c3c(N)ncnc32)C[C@@H]1C [compound (I), 7-((3R,5S)-1-acryloyl-5-methylpyrrolidin-3-yl)-4-amino-6-(cyclopropylethynyl)-N—((R)-1-phenylethyl)-7H-pyrrolo[2,3-d]pyrimidine-5-carboxamide]
body weight reduction of −20% or more ([2]; all mice): not observed
Log 10 of the total flux on Day 22 versus control group ([2]; once a day, significance level (both sides) 5%): statistically significantly lower
